Test results from patent US9481636B2, “N-benzylaniline derivative and uses thereof” (Nanjing Medical University, priority 2011, dated 2016).

System: OGD-injuried neurons (primary cortical neurons)
Experiment: Cell viability assay: LDH release by OGD-injured primary cortical neurons
Type: cell-based, mice
Settings: drug concentration 10^−6 M/L, OGD 2 hours, LDH after 8 hours; for inhibition at 1 µM: Mus musculus, Primary cortical neuron
Protocol: After primary neurons were cultured for 9 days, the medium was replaced by DMEM high glucose medium containing 1% FBS, serum-starved overnight and then washed twice with OGD culture solution. This OGD culture solution contains DMEM medium, 1% FBS, 1% penicillin/streptomycin and B27, and contains no sugar. Then, the primary neurons were incubated with the test drugs for 30 minutes, OGD culture solution was added into an anaerobic tank and oxygen-deprived for 2 hours. The OGD culture solution was discarded, and replaced by oxygen-saturated DMEM medium containing 1% FBS, 1% penicillin/streptomycin and B27. After 8 hours the culture solution was collected to measure LDH level.
After the primary cortical neurons were treated with various processes, neuronal culture solution in six-well plates was pipetted to a 1.5 mL plastic centrifuge tube; cells were washed three times with PBS solution and each well was added PBS 1000 μl. The cells were freezed and thawed repeated for three times, centrifuged at 12000′ g for 5 minutes at 4° C., and the supernatant was removed for use. The activity of LDH enzyme was determined with 50 μl culture solution and 25 μl supernatant using lactate dehydrogenase kit.
Protective Effects of the Objective Compounds Against Primary Cortical Neuronal Injury Cultured In Vitro (See Table 2)

Row | Compound | Inhibition of LDH release (%) | inhibition at 1 µM [%]
1 | CC(=O)Oc1cc(NCc2cc(Cl)cc(Cl)c2O)c(Cl)cc1C(=O)OC1CC2CCC1(C)C2(C)C (centres unmarked) [ZL006-18, bornyl-2-acetyloxy-4-(2-hydroxy-3,5-dichlorobenzyl) amino-5-chlorobenzoate] | 41.5 | –
2 | CC(=O)Oc1cc(NCc2cc(F)cc(Cl)c2O)ccc1C(=O)OC1CC2CCC1(C)C2(C)C (centres unmarked) [ZL006-59, bornyl-2-acetyloxy-4-(2-hydroxy-3-chloro-5-fluorobenzyl) aminobenzoate] | 61.7 | –
3 | CN(Cc1cc(C(F)(F)F)cc(Cl)c1O)c1ccc(C(=O)OC2CC3CCC2(C)C3(C)C)c(O)c1 (centres unmarked) [ZL006-53, bornyl-2-hydroxy-4-[N-(2-hydroxy-3-chloro-5-trifluoromethylbenzyl)-N-methyl]aminobenzoate] | 61.1 | –
4 | CCCC(=O)Oc1cc(NCc2cc(C(F)(F)F)cc(Cl)c2O)ccc1C(=O)OC1CC2CCC1(C)C2(C)C (centres unmarked) [ZL006-52, bornyl-2-butyryloxy-4-(2-hydroxy-3-chloro-5-trifluoromethylbenzyl)aminobenzoate] | – | 40.5
5 | CC(=O)Oc1cc(NCc2cc(Br)ccc2O)ccc1C(=O)OC1CC2CCC1(C)C2(C)C (centres unmarked) [ZL006-65, bornyl-2-acetyloxy-4-(2-hydroxy-5-bromobenzyl) aminobenzoate] | 38.2 | –
6 | COc1cc(NCc2cc(F)ccc2O)ccc1C(=O)OC1CC2CCC1(C)C2(C)C (centres unmarked) [ZL006-70, bornyl-2-methoxy-4-(2-hydroxy-5-fluorobenzyl) aminobenzoate] | 2.4 | –
7 | CC(=O)Oc1cc(N(Cc2cc(Cl)cc(Cl)c2O)C(C)=O)ccc1C(=O)O [ZL006-10, 2-acetyloxy-4-[N-(2-hydroxy-3,5-dichlorobenzyl)-N-acetyl]aminobenzoic acid] | 42.3 | –
8 | COc1cc(NCc2cc(F)cc(Cl)c2O)ccc1C(=O)OC1CC2CCC1(C)C2(C)C (centres unmarked) [ZL006-57, bornyl-2-methoxy-4-(2-hydroxy-3-chloro-5-fluorobenzyl) aminobenzoate] | 23.6 | –
9 | CC(=O)Oc1c(C(=O)OC2CC3CCC2(C)C3(C)C)ccc(NCc2cc(Cl)cc(Cl)c2O)c1Cl (centres unmarked) [ZL006-19, bornyl-2-acetyloxy-3-chloro-4-(2-hydroxy-3,5-dichlorobenzyl)aminobenzoate] | – | 23.9
10 | COC(=O)c1ccc(N(Cc2cc(Cl)cc(Cl)c2O)C(C)=O)cc1OC(C)=O [ZL006-81, methyl 2-acetyloxy-4-[N-(2-hydroxy-3,5-dichlorobenzyl)-N-acetyl]aminobenzoate] | 31.8 | –
11 | CN(Cc1cc(Br)cc(Cl)c1O)c1ccc(C(=O)OC2CC3CCC2(C)C3(C)C)c(O)c1 (centres unmarked) [ZL006-45, bornyl-2-hydroxy-4-[N-(2-hydroxy-3-chloro-5-bromobenzyl)-N-methyl]aminobenzoate] | 67.2 | –
12 | CC(=O)Oc1c(Cl)cc(Cl)cc1CNc1ccc(C(=O)OC2CC3CCC2(C)C3(C)C)c(O)c1 (centres unmarked) [ZL006-76, bornyl-2-hydroxy-4-(2-acetyloxy-3,5-dichlorobenzyl) aminobenzoate] | 40.5 | –
13 | CCOC(=O)c1ccc(N(C)Cc2cc(Cl)cc(Cl)c2O)cc1C(=O)OCC [ZL006-13, diethyl 4-[N-(3,5-dichloro-2-hydroxybenzyl)-N-methyl]aminophthalate] | 31.4 | –
14 | CN(Cc1cc(Cl)cc(Cl)c1O)c1ccc(C(=O)OC2CC3CCC2(C)C3(C)C)c(O)c1 (centres unmarked) [ZL006-27, bornyl-2-hydroxy-4-[N-(2-hydroxy-3,5-dichlorobenzyl)-N-methyl]aminobenzoate] | 25.3 | –
15 | CC(=O)Oc1cc(N(Cc2cc(Cl)cc(Cl)c2O)C(C)=O)ccc1C(=O)OC1CC2CCC1(C)C2(C)C (centres unmarked) [ZL006-31, bornyl-2-acetyloxy-4-[N-(2-hydroxy-3,5-dichlorobenzyl)-N-acetyl]aminobenzoate] | 77.3 | –
16 | CC(=O)Oc1cc(NCc2cc(C(F)(F)F)ccc2O)ccc1C(=O)OC1CC2CCC1(C)C2(C)C (centres unmarked) [ZL006-74, bornyl-2-acetyloxy-4-(2-hydroxy-5-trifluoromethylbenzyl)aminobenzoate] | – | 24.7
17 | CN(Cc1cc(Cl)cc(Cl)c1O)c1ccc(O)c(C(=O)O)c1 [ZL006-12, 2-hydroxy-5-[N-(2-hydroxy-3,5-dichlorobenzyl)-N-methyl]aminobenzoic acid] | 15.1 | –
18 | CN(Cc1cc(Cl)cc(Cl)c1O)c1ccc(C(=O)O)c(O)c1 [ZL006-09, 2-hydroxy-4-[N-(2-hydroxy-3,5-dichlorobenzyl)-N-methyl]aminobenzoic acid] | 29.5 | –

Row | Compound | Inhibition of LDH release (%) | inhibition at 1 µM [%]
19 | CC(=O)Oc1cc(NCc2cc(Cl)ccc2O)ccc1C(=O)OC1CC2CCC1(C)C2(C)C (centres unmarked) [ZL006-68, bornyl-2-acetyloxy-4-(2-hydroxy-5-chlorobenzyl) aminobenzoate] | 1.2 | –
20 | CCCCCCOc1cc(NCc2cc(Cl)cc(Cl)c2O)ccc1C(=O)OC1CC2CCC1(C)C2(C)C (centres unmarked) [ZL006-22, bornyl-2-n-hexyloxy-4-(2-hydroxy-3,5-dichlorobenzyl) aminobenzoate] | 2.5 | –
21 | CC1(C)C2CCC1(C)C(OC(=O)c1ccc(NCc3cc(C(F)(F)F)ccc3O)cc1O)C2 (centres unmarked) [ZL006-72, bornyl-2-hydroxy-4-(2-hydroxy-5-trifluoromethylbenzyl) aminobenzoate] | 21.6 | –
22 | CC(=O)Oc1cc(NCc2cc(F)cc(Cl)c2O)ccc1C(=O)OC1CC2CCC1(C)C2(C)C (centres unmarked) [ZL006-07, bornyl-2-acetyloxy-4-(2-hydroxy-3-chloro-5-fluorobenzyl) aminobenzoate] | 20.7 | –
23 | CC1(C)C2CCC1(C)C(OC(=O)c1ccc(NCc3cc(Br)cc(Cl)c3O)cc1O)C2 (centres unmarked) [ZL006-39, bornyl-2-hydroxy-4-(2-hydroxy-3-chloro-5-bromobenzyl) aminobenzoate] | 81.2 | –
24 | CC1(C)C2CCC1(C)C(OC(=O)c1ccc(NCc3cc(C(F)(F)F)cc(Cl)c3O)cc1O)C2 (centres unmarked) [ZL006-47, bornyl-2-hydroxy-4-(2-hydroxy-3-chloro-5-trifluoromethylbenzyl)aminobenzoate] | – | 84.2
25 | CCCC(=O)Oc1cc(NCc2cc(Br)cc(Cl)c2O)ccc1C(=O)OC1CC2CCC1(C)C2(C)C (centres unmarked) [ZL006-44, bornyl-2-butyryloxy-4-(2-hydroxy-3-chloro-5-bromobenzyl)aminobenzoate] | – | 43.5
26 | COc1cc(NCc2cc(Cl)cc(Cl)c2O)ccc1C(=O)OC1CC2CCC1(C)C2(C)C (centres unmarked) [ZL006-20, bornyl-2-methoxy-4-(2-hydroxy-3,5-dichlorobenzyl) aminobenzoate] | 11.1 | –
27 | COC(=O)c1ccc(N(Cc2cc(C(F)(F)F)cc(Cl)c2O)C(C)=O)cc1OC(C)=O [ZL006-83, methyl 2-acetyloxy-4-[N-(2-hydroxy-3-chloro-5-trifluoromethylbenzyl)-N-acetyl]aminobenzoate] | 33.2 | –
28 | CCCCOc1cc(NCc2cc(Cl)cc(Cl)c2O)ccc1C(=O)OC1CC2CCC1(C)C2(C)C (centres unmarked) [ZL006-21, bornyl-2-n-butoxy-4-(2-hydroxy-3,5-dichlorobenzyl) aminobenzoate] | 6.2 | –
29 | COc1cc(NCc2cc(Br)cc(Cl)c2O)ccc1C(=O)OC1CC2CCC1(C)C2(C)C (centres unmarked) [ZL006-41, bornyl-2-methoxy-4-(2-hydroxy-3-chloro-5-bromobenzyl) aminobenzoate] | 45.5 | –
30 | bornyl-2-(bornyl-2-carbonylethoxy)-4-[N-(2-hydroxy-3,5-dichlorobenzyl)-N-(bornyl-2-carbonylethyl)]aminobenzoate [ZL006-37] | 40.2 | –
31 | COc1cc(N(C)Cc2cc(Cl)cc(Cl)c2O)ccc1C(=O)OC1CC2CCC1(C)C2(C)C (centres unmarked) [ZL006-29, bornyl-2-methoxy-4-[N-(2-hydroxy-3,5-dichlorobenzyl)-N-methyl]aminobenzoate] | 41.7 | –
32 | COc1c(Cl)cc(C(F)(F)F)cc1CNc1ccc(C(=O)OC2CC3CCC2(C)C3(C)C)c(O)c1 (centres unmarked) [ZL006-79, bornyl-2-hydroxy-4-(2-methoxy-3-chloro-5-trifluoromethylbenzyl)aminobenzoate] | – | 58.3
33 | CC1(C)C2CCC1(C)C(OC(=O)c1ccc(NCc3cc(F)cc(Cl)c3O)cc1O)C2 (centres unmarked) [ZL006-55, bornyl-2-hydroxy-4-(2-hydroxy-3-chloro-5-fluorobenzyl) aminobenzoate] | 36.3 | –
34 | CC(=O)N(Cc1cc(F)cc(Cl)c1O)c1ccc(C(=O)OC2CC3CCC2(C)C3(C)C)c(O)c1 (centres unmarked) [ZL006-62, bornyl-2-hydroxy-4-[N-(2-hydroxy-3-chloro-5-fluorobenzyl)-N-acetyl]aminobenzoate] | 50.1 | –
35 | CCCCOc1cc(NCc2cc(F)cc(Cl)c2O)ccc1C(=O)OC1CC2CCC1(C)C2(C)C (centres unmarked) [ZL006-58, bornyl-2-n-butoxy-4-(2-hydroxy-3-chloro-5-fluorobenzyl) aminobenzoate] | 25.1 | –
